Consider 2 molecules from publication PMC12227546 (Nature Communications, 2025).

Series [1] addresses T1, taurine transporter (TauT) (Homo sapiens, UniProt P31641).
T1 sequence (P31641 1-620): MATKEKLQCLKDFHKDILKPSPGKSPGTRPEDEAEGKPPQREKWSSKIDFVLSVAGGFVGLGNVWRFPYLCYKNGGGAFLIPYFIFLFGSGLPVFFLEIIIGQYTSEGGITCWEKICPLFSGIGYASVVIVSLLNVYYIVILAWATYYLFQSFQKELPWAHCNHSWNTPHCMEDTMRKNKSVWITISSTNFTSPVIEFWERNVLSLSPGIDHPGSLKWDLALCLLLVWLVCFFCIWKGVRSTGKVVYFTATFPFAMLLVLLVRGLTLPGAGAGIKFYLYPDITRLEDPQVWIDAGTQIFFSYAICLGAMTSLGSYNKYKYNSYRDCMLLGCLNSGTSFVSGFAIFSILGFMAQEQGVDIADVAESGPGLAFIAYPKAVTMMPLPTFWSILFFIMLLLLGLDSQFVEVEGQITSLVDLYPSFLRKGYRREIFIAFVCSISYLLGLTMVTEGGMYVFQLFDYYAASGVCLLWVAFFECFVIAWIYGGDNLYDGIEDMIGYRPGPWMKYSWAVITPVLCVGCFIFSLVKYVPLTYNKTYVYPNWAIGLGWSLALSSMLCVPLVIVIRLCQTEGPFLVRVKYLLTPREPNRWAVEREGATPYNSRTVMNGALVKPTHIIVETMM
Briefly: cryo-EM structure. It is filed as cell-based.

Substrate in series [2]: NCCS(=O)(=O)O
Briefly: cells, lysate or membranes. It counts as cell-based, Homo sapiens. The note with it: Na+ and Cl- central pocket.

Substitutions are numbered along the chain they refer to. In names and notes the source's numbering stands.

In general, IC50 refers to the midpoint of a concentration-inhibition curve. As usually defined, the Km is the substrate concentration at which the rate is half of its maximum.

`NCCCC(=O)O` [GABA]: the midpoint of inhibition in series [1], the IC50, lay at 1300 µM.

B1: taurine transporter (TauT) (Homo sapiens; F58A) (protein)
chain: T1 sequence (P31641 1-620) with F58A
Take B1: the Km in series [2] was found to be 166.2 µM.
